Here are results for 17 compounds from patent US20220064195A1, “SYNTHETIC I2 IMIDAZOLINE RECEPTOR LIGANDS FOR PREVENTION OR TREATMENT OF HUMAN BRAIN DISORDERS” (Universitat de Barcelona, priority 2018, published 2022).

The structures appear in SMILES notation. Values joined by “and” are separate entries in the source; they are usually repeats but may differ in a detail not shown here. Identical values can stand only once.

Series [1] can be described thus: in vitro. To be noted: pig, PAMPA. (The PAMPA barrier holds no transporters, so it reflects passive diffusion.)
Experimental: (§1) To evaluate the brain penetration of the different compounds, a parallel artificial membrane permeation assay for blood-brain barrier was used, following the method described by Di et al. (cf. Table 2). The in vitro permeability (Pe) of fourteen commercial drugs through lipid extract of porcine brain membrane together with the test compounds were determined. Commercial drugs and assayed compounds were tested using a mixture of PBS:EtOH (70:30).
Series [2] deals with I2-IR. Put plainly: Competition binding against the selective I2-IR radioligand [3H]-2-BFI in membranes from post-mortem human frontal cortex. Conditions: membranes from post-mortem human frontal cortex; radioligand [3H]-2-BFI.
For series [3] the following is noted: for CNS Prediction: predictive penetration in the CNS from PAMPA-BBB Pe.
Experimental: as §1

Turning to `CCOP(=O)(OCC)[C@]1(c2ccccc2)N=C[C@H]2C(=O)N(C3CCCCC3)C(=O)[C@H]21` (racemic) [Compound I-07, Diethyl (1RS,3aSR,6aSR)-5-cyclohexyl-4,6-dioxo-1-phenyl-1,3a,4,5,6,6a-hexahydropyrrolo[3,4-c]pyrrole-1-phosphonate], in series [1], the Papp – broadly, a coefficient for how fast a substance crosses the barrier – was 25.9 ± 0.6 ×10⁻⁶ cm/s. For the same compound, the “[^3H]-2-BFI I2 binding affinity (pKi)” value in series [2] was found to be 9.74 ± 0.29. Besides, the “CNS Prediction” value in series [3] is recorded as “CNS+ (compounds of high BBB permeation (CNS+): Pe (10^−6 cm s^−1)>5,179)”.

With `CCOP(=O)(OCC)[C@]1(c2ccccc2)N=C[C@H]2C(=O)N(c3ccccc3)C(=O)[C@H]21` (racemic) [Compound I-16, Diethyl (1RS,3aSR,6aSR)-4,6-dioxo-1,5-diphenyl-1,3a,4,5,6,6a-hexahydropyrrolo[3,4-c]pyrrole-1-phosphonate], the Papp in series [1] was determined as 7.8 ± 0.6 ×10⁻⁶ cm/s. For the same compound, the “[^3H]-2-BFI I2 binding affinity (pKi)” value in series [2] was found to be 10.28 ± 0.37. In series [3], the “CNS Prediction” value is listed as “CNS+ (compounds of high BBB permeation (CNS+): Pe (10^−6 cm s^−1)>5,179)”.

Turning to `CCOP(=O)(OCC)[C@]1(c2ccccc2)N=C[C@H]2C(=O)N(CCc3ccc(F)cc3)C(=O)[C@H]21` (racemic) [Compound I-36, Diethyl (1RS,3aSR,6aSR)-5-(4-fluorophenethyl)-4,6-dioxo-1-phenyl-1,3a,4,5,6,6a-hexahydropyrrolo[3,4-c]pyrrole-1-phosphonate], the Papp in series [1] was determined as 7.2 ± 0.45 ×10⁻⁶ cm/s. In addition, in series [3], the “CNS Prediction” value is “CNS+ (compounds of high BBB permeation (CNS+): Pe (10^−6 cm s^−1)>5,179)”.

Consider `CCOP(=O)(OCC)[C@]1(c2ccccc2)N=C[C@H]2C(=O)N(c3ccc(F)cc3)C(=O)[C@H]21` (racemic) [Compound I-37, Diethyl (1RS,3aSR,6aSR)-5-(4-fluorophenyl)-4,6-dioxo-1-phenyl-1,3a,4,5,6,6a-hexahydropyrrolo[3,4-c]pyrrole-1-phosphonate], for which the Papp in series [1] is 3.2 ± 0.2 ×10⁻⁶ cm/s. The “CNS Prediction” value in series [3] was “CNS+/− (compounds of uncertain BBB permeation (CNS+/−): 5,179>Pe (10^−6 cm s^−1)>2,083)”.

`CCOP(=O)(OCC)[C@]1(c2ccccc2)N=C[C@H]2C(=O)N(c3ccc(C(F)(F)F)cc3)C(=O)[C@H]21` (racemic) [Compound I-38, Diethyl (1RS,3aSR,6aSR)-4,6-dioxo-1-phenyl-5-[4-(trifluoromethyl)phenyl]-1,3a,4,5,6,6a-hexahydropyrrolo[3,4-c]pyrrole-1-phosphonate]: in series [1], the Papp stood at 5.6 ± 0.15 ×10⁻⁶ cm/s. In series [3], the “CNS Prediction” value is on record as “CNS+ (compounds of high BBB permeation (CNS+): Pe (10^−6 cm s^−1)>5,179)”.

In series [1], `CCOP(=O)(OCC)[C@]1(c2ccccc2)N=C[C@H]2C(=O)N(c3ccc(Cl)c(Cl)c3)C(=O)[C@H]21` (racemic) [Compound I-44, Diethyl (1RS,3aSR,6aSR)-5-(3,4-dichlorophenyl)-4,6-dioxo-1-phenyl-1,3a,4,5,6,6a-hexahydropyrrolo[3,4-c]pyrrole-1-phosphonate] yielded a Papp of 8.9 ± 0.3 ×10⁻⁶ cm/s. Further, the “CNS Prediction” value in series [3] is recorded as “CNS+ (compounds of high BBB permeation (CNS+): Pe (10^−6 cm s^−1)>5,179)”.

The compound `CCOP(=O)(OCC)[C@]1(c2ccccc2)N=C[C@H]2C(=O)N(c3ccc(C)cc3)C(=O)[C@H]21` (racemic) [Compound I-45, Diethyl (1RS,3aSR,6aSR)-4,6-dioxo-1-phenyl-5-(p-tolyl)-1,3a,4,5,6,6a-hexahydropyrrolo[3,4-c]pyrrole-1-phosphonate] gave a Papp in series [1] of 8.75 ± 0.5 ×10⁻⁶ cm/s. For the same compound, the “CNS Prediction” value in series [3] is on record as “CNS+ (compounds of high BBB permeation (CNS+): Pe (10^−6 cm s^−1)>5,179)”.

In turn, `CCOP(=O)(OCC)[C@@]1(Cc2ccccc2)N=C[C@H]2C(=O)N(c3ccccc3)C(=O)[C@H]21` (racemic) [Compound I-46, Diethyl (1RS,3aSR,6aSR)-1-benzyl-4,6-dioxo-5-phenyl-1,3a,4,5,6,6a-hexahydropyrrolo[3,4-c]pyrrole-1-phosphonate] came in with a Papp in series [1] of 6.9 ± 0.3 ×10⁻⁶ cm/s. Also, the “CNS Prediction” value in series [3] was “CNS+ (compounds of high BBB permeation (CNS+): Pe (10^−6 cm s^−1)>5,179)”.

As to `CCOP(=O)(OCC)[C@]1(c2ccccc2)N=C[C@H]2C(=O)N(c3ccc(Cl)cc3)C(=O)[C@H]21` (racemic) [Compound I-49, Diethyl (1RS,3aSR,6aSR)-5-(4-chlorophenyl)-4,6-dioxo-1-phenyl-1,3a,4,5,6,6a-hexahydropyrrolo[3,4-c]pyrrole-1-phosphonate], in series [1], the Papp is 5.5 ± 0.03 ×10⁻⁶ cm/s. For the same compound, the “CNS Prediction” value in series [3] is “CNS+ (compounds of high BBB permeation (CNS+): Pe (10^−6 cm s^−1)>5,179)”.

`CCCN1C(=O)[C@@H]2[C@@H](C=N[C@@]2(c2ccccc2)P(=O)(OCC)OCC)C1=O` (racemic) [Compound I-51, Diethyl (1RS,3aSR,6aSR)-4,6-dioxo-1-phenyl-5-propyl-1,3a,4,5,6,6a-hexahydropyrrolo[3,4-c]pyrrole-1-phosphonate]: in series [1], the Papp worked out at 6.2 ± 0.3 ×10⁻⁶ cm/s. The “CNS Prediction” value in series [3] is “CNS+ (compounds of high BBB permeation (CNS+): Pe (10^−6 cm s^−1)>5,179)”.

As to `CCOP(=O)(OCC)[C@]1(c2ccccc2)N=C[C@H]2C(=O)N(c3cccc(C(F)(F)F)c3)C(=O)[C@H]21` (racemic) [Compound I-52, Diethyl (1RS,3aSR,6aSR)-4,6-dioxo-1-phenyl-5-[3-(trifluoromethyl)phenyl]-1,3a,4,5,6,6a-hexahydropyrrolo[3,4-c]pyrrole-1-phosphonate], the Papp in series [1] was 6.9 ± 0.2 ×10⁻⁶ cm/s. Further, in series [3], the “CNS Prediction” value is listed as “CNS+ (compounds of high BBB permeation (CNS+): Pe (10^−6 cm s^−1)>5,179)”.

Consider `CCOP(=O)(OCC)[C@]1(c2ccccc2)N=C[C@H]2C(=O)N(CC)C(=O)[C@H]21` (racemic) [Compound I-54, Diethyl (1RS,3aSR,6aSR)-5-ethyl-4,6-dioxo-1-phenyl-1,3a,4,5,6,6a-hexahydropyrrolo[3,4-c]pyrrole-1-phosphonate], for which, in series [1], the Papp came to 3.7 ± 0.5 ×10⁻⁶ cm/s. Further, in series [3], the “CNS Prediction” value was “CNS+/− (compounds of uncertain BBB permeation (CNS+/−): 5,179>Pe (10^−6 cm s^−1)>2,083)”.

`CCOP(=O)(OCC)[C@]1(c2ccccc2)N=C[C@H]2C(=O)N(C(C)(C)C)C(=O)[C@H]21` (racemic) [Compound I-55, Diethyl (1RS,3aSR,6aSR)-5-(tert-butyl)-4,6-dioxo-1-phenyl-1,3a,4,5,6,6a-hexahydropyrrolo[3,4-c]pyrrole-1-phosphonate] showed a Papp in series [1] of 6.3 ± 0.3 ×10⁻⁶ cm/s. For the same compound, the “CNS Prediction” value in series [3] was “CNS+ (compounds of high BBB permeation (CNS+): Pe (10^−6 cm s^−1)>5,179)”.

As to `CCOP(=O)(OCC)[C@]1(c2ccccc2)N=C[C@H]2C(=O)N(c3cccc4ccccc34)C(=O)[C@H]21` (racemic) [Compound I-56, Diethyl (1RS,3aSR,6aSR)-5-(naphth-1-yl)-4,6-dioxo-1-phenyl-1,3a,4,5,6,6a-hexahydropyrrolo[3,4-c]pyrrole-1-phosphonate], in series [1], the Papp amounted to 1.4 ± 0.06 ×10⁻⁶ cm/s. Besides, the “CNS Prediction” value in series [3] was “CNS− (compounds of low BBB permeation (CNS−): Pe (10^−6 cm s^−1)<2,083)”.

The compound `CCOP(=O)(OCC)[C@@]1(Cc2ccccc2)N=C[C@H]2C(=O)N(C3CCCCC3)C(=O)[C@H]21` (racemic) [Compound I-57, Diethyl (1RS,3aSR,6aSR)-1-benzyl-5-cyclohexyl-4,6-dioxo-1,3a,4,5,6,6a-hexahydropyrrolo[3,4-c]pyrrole-1-phosphonate] yielded a Papp in series [1] of 5.1 ± 0.01 ×10⁻⁶ cm/s. For the same compound, the “CNS Prediction” value in series [3] is listed as “CNS+/− (compounds of uncertain BBB permeation (CNS+/−): 5,179>Pe (10^−6 cm s^−1)>2,083)”.

For `c1ccc2c(c1)OCC(C1=NCCN1)O2` (stereo not shown) [Idazoxan, reference compound], the “[^3H]-2-BFI I2 binding affinity (pKi)” value in series [2] was 7.27±0.07 and 7.41 ± 0.63.

For `CCn1cc(C(=O)O)c(=O)c2cc(F)c(N3CCNCC3)cc21` [norfloxacine, reference compound], the “Permeability (Pe) Experimental value ± SD (n = 3)” value in series [3] (PAMPA-BBB, PBS:EtOH (70:30), three experiments in triplicate) was 0.90 ± 0.02 10−6 cm s^−1.
